Legend:
[1] = biological target: T1, MAO-B (Homo sapiens, UniProt P27338); assay: biochemical; conditions: for remaining activity at 10 µM: read-out: Residual Activity at 10 µM (%) MAO-B
T1 sequence (P27338 1-520): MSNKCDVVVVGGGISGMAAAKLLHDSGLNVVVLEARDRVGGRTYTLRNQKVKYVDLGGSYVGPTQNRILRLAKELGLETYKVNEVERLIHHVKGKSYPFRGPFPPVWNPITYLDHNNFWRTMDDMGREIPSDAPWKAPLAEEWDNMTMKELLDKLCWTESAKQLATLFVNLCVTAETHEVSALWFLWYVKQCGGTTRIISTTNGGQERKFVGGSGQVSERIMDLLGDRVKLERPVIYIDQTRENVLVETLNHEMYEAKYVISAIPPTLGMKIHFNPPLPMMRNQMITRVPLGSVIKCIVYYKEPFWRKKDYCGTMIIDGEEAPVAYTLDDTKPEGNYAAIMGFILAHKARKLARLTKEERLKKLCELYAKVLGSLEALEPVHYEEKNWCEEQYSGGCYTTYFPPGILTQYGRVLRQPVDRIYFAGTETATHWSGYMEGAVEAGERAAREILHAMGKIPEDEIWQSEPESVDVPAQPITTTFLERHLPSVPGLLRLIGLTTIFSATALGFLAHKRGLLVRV

[2] = biological target: T2, hMAO-A (Homo sapiens, UniProt P21397); assay: Inhibition of recombinant hMAO-A, kynuramine substrate, continuous absorbance method; conditions: for remaining activity at 10 µM: read-out: Residual Activity at 10 µM (%) MAO-A
T2 sequence (P21397 1-527): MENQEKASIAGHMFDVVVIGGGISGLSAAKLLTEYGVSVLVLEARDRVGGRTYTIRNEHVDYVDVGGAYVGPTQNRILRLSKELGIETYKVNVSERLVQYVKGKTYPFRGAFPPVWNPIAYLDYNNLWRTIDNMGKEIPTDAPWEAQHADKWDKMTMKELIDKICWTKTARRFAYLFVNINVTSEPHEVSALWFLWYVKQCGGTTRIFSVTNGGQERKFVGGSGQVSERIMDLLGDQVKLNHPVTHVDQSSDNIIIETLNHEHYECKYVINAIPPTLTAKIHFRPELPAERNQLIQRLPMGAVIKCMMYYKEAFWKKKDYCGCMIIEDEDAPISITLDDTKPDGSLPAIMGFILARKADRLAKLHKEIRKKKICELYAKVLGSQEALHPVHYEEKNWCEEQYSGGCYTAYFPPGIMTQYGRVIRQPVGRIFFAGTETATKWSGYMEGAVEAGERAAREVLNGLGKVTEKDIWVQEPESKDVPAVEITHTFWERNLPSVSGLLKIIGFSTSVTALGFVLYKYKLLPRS

[3] = PAMPA for blood-brain barrier permeation; format: in vitro ADME
[4] = biological target: T1, MAO-B; assay: Reversibility of MAO-B inhibition by dialysis; format: biochemical; design: purchased Sigma-Aldrich
[5] = biological target: T1, MAO-B; assay: MAO-B inhibition kinetics (Lineweaver-Burk and secondary plots); format: biochemical; design: purchased Sigma-Aldrich

Row | SMILES | IC50 [1] [µM] | remaining activity at 10 µM [1] [%] | IC50 [2] [µM] | remaining activity at 10 µM [2] [%] | Prediction (BBB permeation class) ([3]; class from Pe) | activity ([4]; about 2.0 times IC50 (S5 0.4 μM, S16 2.0 μM), 30 min pre-incubation, read-out: Residual MAO-B activity before recovery, undialyzed (AU)) [%] | Experimental Pe ([3]; PAMPA-BBB, pH 7.4) [nm/s] | Papp ([3]; PAMPA-BBB, pH 7.4, read-out: Experimental Pe) [nm/s] | Reversibility of MAO-B inhibition ([4]; dialysis, compared with safinamide and pargyline) | Type of MAO-B inhibition ([5]; LB plots, five substrate and three inhibitor concentrations) | Ki ([5]; secondary plot of LB slopes, benzylamine substrate) [µM]
1 | COc1cccc(C=NNC(=O)Cn2nc(N3CCC(Cc4ccccc4)CC3)ccc2=O)c1 [Compound S11] | 1.71 ± 0.437 | 14.5 ± 1.14 | 5.064 ± 0.006 | 16.6 ± 9.23 | – | – | – | – | – | – | –
2 | O=C(Cn1nc(N2CCC(Cc3ccccc3)CC2)ccc1=O)NN=Cc1ccc([N+](=O)[O-])cc1 [Compound S14] | 3.62 ± 0.54 | 39.8 ± 4.14 | 24.2 ± 0.283 | 67.1 ± 5.19 | – | – | – | – | – | – | –
3 | Cc1cccc(C=NNC(=O)Cn2nc(N3CCC(Cc4ccccc4)CC3)ccc2=O)c1 [Compound S10, N′-3-methylbenzylidene-2-(3-(4-benzylpiperidin-1-yl)-6-oxopyridazin-1(6H)-yl)acetohydrazide] | 3.549 ± 0.001 | 9.31 ± 2.04 | 4.53 ± 0.424 | 16.1 ± 4.26 | – | – | – | – | – | – | –
4 | CCc1ccc(C=NNC(=O)Cn2nc(N3CCC(Cc4ccccc4)CC3)ccc2=O)cc1 [Compound S15, N′-4-ethylbenzylidene-2-(3-(4-benzylpiperidin-1-yl)-6-oxopyridazin-1(6H)-yl)acetohydrazide] | 5.34 ± 0.667 | 54.4 ± 4.05 | 3.69 ± 0.655 | 30.1 ± 8.1 | – | – | – | – | – | – | –
5 | C#CCN(C)[C@H](C)Cc1ccccc1 [Selegiline, reference compound] | – | – | – | – | CNS+ (Pe (10^−6 cm·s^−1) > 4.00: CNS+ (high permeation)) | – | – | – | – | – | –
6 | Cc1ccccc1C=NNC(=O)Cn1nc(N2CCC(Cc3ccccc3)CC2)ccc1=O [Compound S9, N′-2-methylbenzylidene-2-(3-(4-benzylpiperidin-1-yl)-6-oxopyridazin-1(6H)-yl)acetohydrazide] | 7.24 ± 0.994 | 32.9 ± 5.19 | 4.51 ± 0.589 | 23.2 ± 1.2 | – | – | – | – | – | – | –
7 | O=C(Cn1nc(N2CCC(Cc3ccccc3)CC2)ccc1=O)NN=Cc1ccccc1 [Compound S1] | 7.05 ± 0.086 | 36.5 ± 8.32 | 16.47 ± 0.047 | 63.4 ± 2.24 | – | – | – | – | – | – | –
8 | COc1cc(OC)c(C=NNC(=O)Cn2nc(N3CCC(Cc4ccccc4)CC3)ccc2=O)c(OC)c1 [Compound S21, N′-2,4,6-trimethoxybenzylidene-2-(3-(4-benzylpiperidin-1-yl)-6-oxopyridazin-1(6H)-yl)acetohydrazide] | 6.12 ± 0.662 | 48.5 ± 6.43 | 7.47 ± 0.344 | 32.8 ± 2.18 | – | – | – | – | – | – | –
9 | CN(C)c1ccc(C=NNC(=O)Cn2nc(N3CCC(Cc4ccccc4)CC3)ccc2=O)cc1 [Compound S13] | 6.48 ± 0.559 | 37.6 ± 2.5 | 5.63 ± 1.18 | 36.1 ± 1.01 | – | – | – | – | – | – | –
10 | C[C@H](NCc1ccc(OCc2cccc(F)c2)cc1)C(N)=O [Safinamide, reference compound] | – | -15.6 ± 0.86 | – | 69 ± 1.36 | – | 28.3 | – | – | – | – | –
11 | O=C(Cn1nc(N2CCC(Cc3ccccc3)CC2)ccc1=O)NN=Cc1ccc(F)cc1 [Compound S8] | 5.37 ± 0.123 | 31.9 ± 2.62 | 7.99 ± 1.28 | 22.4 ± 3.07 | – | – | – | – | – | – | –
12 | N#Cc1ccccc1C=NNC(=O)Cn1nc(N2CCC(Cc3ccccc3)CC2)ccc1=O [Compound S16, N′-2-cyanobenzylidene-2-(3-(4-benzylpiperidin-1-yl)-6-oxopyridazin-1(6H)-yl)acetohydrazide] | 0.979 ± 0.206 | -12.9 ± 1.14 | 6.15 ± 0.305 | 33.2 ± 9.25 | – | – | 37.8 | 37.8 ± 2 | reversible | competitive | 0.721 ± 0.074
13 | O=C(Cn1nc(N2CCC(Cc3ccccc3)CC2)ccc1=O)NN=Cc1ccc(Br)cc1 [Compound S2] | 10.7 ± 0.565 | 56.5 ± 4.99 | 10.9 ± 1.19 | 54.8 ± 3.1 | – | – | – | – | – | – | –
14 | COc1cc(C=NNC(=O)Cn2nc(N3CCC(Cc4ccccc4)CC3)ccc2=O)cc(OC)c1 [Compound S20, N′-3,5-dimethoxybenzylidene-2-(3-(4-benzylpiperidin-1-yl)-6-oxopyridazin-1(6H)-yl)acetohydrazide] | 3.63 ± 0.142 | 11.7 ± 2.41 | 19 ± 2.71 | 68 ± 4.21 | – | – | – | – | – | – | –
15 | COc1cccc(C=NNC(=O)Cn2nc(N3CCC(Cc4ccccc4)CC3)ccc2=O)c1OC [Compound S22, N′-2,3-dimethoxybenzylidene-2-(3-(4-benzylpiperidin-1-yl)-6-oxopyridazin-1(6H)-yl)acetohydrazide] | 7.87 ± 0.208 | 39 ± 2.83 | 5.94 ± 0.264 | -8.5 ± 2.12 | – | – | – | – | – | – | –
16 | O=C(Cn1nc(N2CCC(Cc3ccccc3)CC2)ccc1=O)NN=Cc1cccc(F)c1 [Compound S7, N′-3-fluorobenzylidene-2-(3-(4-benzylpiperidin-1-yl)-6-oxopyridazin-1(6H)-yl)acetohydrazide] | 1.711 ± 0.009 | 1.03 ± 4.63 | 4.74 ± 0.624 | 12.8 ± 7.24 | – | – | – | – | – | – | –
17 | O=C(Cn1nc(N2CCC(Cc3ccccc3)CC2)ccc1=O)NN=Cc1ccccc1Br [Compound S3, N′-2-bromobenzylidene-2-(3-(4-benzylpiperidin-1-yl)-6-oxopyridazin-1(6H)-yl)acetohydrazide] | 4.75 ± 0.155 | 50.59 ± 0.01 | 4.13 ± 1.12 | 34.4 ± 1.93 | – | – | – | – | – | – | –
18 | N#Cc1ccc(C=NNC(=O)Cn2nc(N3CCC(Cc4ccccc4)CC3)ccc2=O)cc1 [Compound S18, N′-4-cyanobenzylidene-2-(3-(4-benzylpiperidin-1-yl)-6-oxopyridazin-1(6H)-yl)acetohydrazide] | 3.51 ± 0.811 | 48.37 ± 0.08 | 7.19 ± 0.201 | 35.9 ± 2.54 | – | – | – | – | – | – | –
19 | COc1ccc(C=NNC(=O)Cn2nc(N3CCC(Cc4ccccc4)CC3)ccc2=O)cc1 [Compound S12] | 6.463 ± 0.035 | 38.46 ± 0.36 | 4.642 ± 0.001 | 7.71 ± 8.25 | – | – | – | – | – | – | –
20 | C#CCN(C)Cc1ccccc1 [Pargyline, reference compound] | – | – | – | 19.9 ± 6.82 | – | – | – | – | – | – | –
21 | O=C(Cn1nc(N2CCC(Cc3ccccc3)CC2)ccc1=O)NN=Cc1ccc(Cl)cc1 [Compound S6] | 4.95 ± 0.353 | 26.7 ± 3.83 | 7.14 ± 1.07 | 42.2 ± 3.22 | – | – | – | – | – | – | –
22 | COc1ccccc1C=NNC(=O)Cn1nc(N2CCC(Cc3ccccc3)CC2)ccc1=O [Compound S19, N′-2-methoxybenzylidene-2-(3-(4-benzylpiperidin-1-yl)-6-oxopyridazin-1(6H)-yl)acetohydrazide] | – | 20.8 ± 1.76 | 4.66 ± 0.307 | 7.83 ± 2.05 | – | – | – | – | – | – | –
23 | COc1ccc(C=NNC(=O)Cn2nc(N3CCC(Cc4ccccc4)CC3)ccc2=O)c(OC)c1 [Compound S24, N′-2,4-dimethoxybenzylidene-2-(3-(4-benzylpiperidin-1-yl)-6-oxopyridazin-1(6H)-yl)acetohydrazide] | 10.7 ± 2.48 | 54.7 ± 3.76 | 4.13 ± 0.107 | 20.7 ± 1.34 | – | – | – | – | – | – | –
24 | O=C(Cn1nc(N2CCC(Cc3ccccc3)CC2)ccc1=O)NN=Cc1cccc(Br)c1 [Compound S4, N′-3-bromobenzylidene-2-(3-(4-benzylpiperidin-1-yl)-6-oxopyridazin-1(6H)-yl)acetohydrazide] | 6.17 ± 0.155 | 33.5 ± 2.5 | 27 ± 0.797 | 56.9 ± 9.78 | – | – | – | – | – | – | –
25 | N#Cc1cccc(C=NNC(=O)Cn2nc(N3CCC(Cc4ccccc4)CC3)ccc2=O)c1 [Compound S17, N′-3-cyanobenzylidene-2-(3-(4-benzylpiperidin-1-yl)-6-oxopyridazin-1(6H)-yl)acetohydrazide] | 3.1 ± 0.088 | 0 | 6.28 ± 0.306 | 9.98 ± 0.57 | – | – | – | – | – | – | –
26 | COc1cc(C=NNC(=O)Cn2nc(N3CCC(Cc4ccccc4)CC3)ccc2=O)cc(OC)c1OC [Compound S23, N′-3,4,5-trimethoxybenzylidene-2-(3-(4-benzylpiperidin-1-yl)-6-oxopyridazin-1(6H)-yl)acetohydrazide] | 10.9 ± 0.405 | 53.1 ± 2.67 | 28.4 ± 2.95 | 78.79 ± 0.3 | – | – | – | – | – | – | –

Source: paper PMC11243598, “Inhibition of Monoamine Oxidases by Pyridazinobenzylpiperidine Derivatives” (Molecules, 2024)
